Laboratory results from publication PMC2649369 (The Journal of neuroscience : the official journal of the …, 2007).

Legend:
[1] = test system: α1β2 205-4-F-Phe GABAA receptor; experiment: GABA concentration-response, voltage-clamp in oocytes, β2 205-4-F-Phe; type: cell-based, human
[2] = test system: α1β2 97-3,5-F2-Phe GABAA receptor; experiment: GABA concentration-response, voltage-clamp in oocytes, β2 97-3,5-F2-Phe; type: cell-based, human
[3] = test system: α1β2 157-3,5-F2-Phe GABAA receptor; experiment: GABA concentration-response, voltage-clamp in oocytes, β2 157-3,5-F2-Phe; type: cell-based, human
[4] = test system: α1 65-3,4,5-F3-Phe β2 GABAA receptor; experiment: GABA concentration-response, voltage-clamp in oocytes, α1 65-3,4,5-F3-Phe; type: cell-based, human
[5] = test system: α1β2 97-3,4,5-F3-Phe GABAA receptor; experiment: GABA concentration-response, voltage-clamp in oocytes, β2 97-3,4,5-F3-Phe; type: cell-based, human
[6] = test system: α1β2 157-4-Me-Phe GABAA receptor; experiment: GABA concentration-response, voltage-clamp in oocytes, β2 157-4-Me-Phe; type: cell-based, human
[7] = test system: α1β2 205-3,5-F2-Phe GABAA receptor; experiment: GABA concentration-response, voltage-clamp in oocytes, β2 205-3,5-F2-Phe; type: cell-based, human
[8] = test system: α1β2 205-3,4,5-F3-Phe GABAA receptor; experiment: GABA concentration-response, voltage-clamp in oocytes, β2 205-3,4,5-F3-Phe; type: cell-based, human
[9] = test system: α1β2 157-3,4,5-F3-Phe GABAA receptor; experiment: GABA concentration-response, voltage-clamp in oocytes, β2 157-3,4,5-F3-Phe; type: cell-based, human
[10] = biological target: GABAA receptor α1Phe64 (α1Phe65 by human numbering) to Leu mutant; details: cited from earlier work
[11] = test system: GABAA receptors with phenylalanine mutations at β2Tyr157 and β2Tyr205; details: phenylalanine mutants vs unmutated; ref Amin and Weiss, 1993; cited from earlier work

Compound: NCCCC(=O)O [GABA]
- nH (Hill coefficient) [1]: 1.9
- nH (Hill coefficient) [2]: 1.1
- nH (Hill coefficient) [3]: 2.0
- nH (Hill coefficient) [4]: 1.5
- nH (Hill coefficient) [5]: 1.9
- nH (Hill coefficient) [6]: 0.8
- nH (Hill coefficient) [7]: 1.9
- nH (Hill coefficient) [8]: 2.5
- nH (Hill coefficient) [9]: 1.7

Compound: CN1CCc2cc3c(cc2[C@H]1[C@@H]1OC(=O)c2c1ccc1c2OCO1)OCO3 [bicuculline]
- change of IC50 on mutation [10]: increasing by similar amounts

Compound: CCCC(C)C1(CC)C(=O)NC(=O)NC1=O (centres unmarked) [pentobarbital]
- functional response on activation of the receptors [11]: no change in functional response
